Results taken from US20250230193A1, “CYCLIC COMPOUND HAVING SELECTIVE KRAS INHIBITORY EFFECT ON HRAS AND NRAS” (CHUGAI SEIYAKU KABUSHIKI KAISHA, priority 2022, published 2025).

Key:
[1] = biological target: GDP-bound NRAS wild-type protein (Homo sapiens, UniProt P01111); test: Binding to NRAS by surface plasmon resonance (SPR), Single Cycle Kinetics; settings: KD ratio, GDP-bound NRAS wild-type vs GDP-bound KRAS wild-type, SPR
[2] = biological target: GDP-bound HRAS wild-type protein (Homo sapiens, UniProt P01112); test: Binding to HRAS by surface plasmon resonance (SPR), Single Cycle Kinetics; settings: KD ratio, GDP-bound HRAS wild-type vs GDP-bound KRAS wild-type, SPR
Chain of GDP-bound HRAS wild-type protein (P01112 whole entry): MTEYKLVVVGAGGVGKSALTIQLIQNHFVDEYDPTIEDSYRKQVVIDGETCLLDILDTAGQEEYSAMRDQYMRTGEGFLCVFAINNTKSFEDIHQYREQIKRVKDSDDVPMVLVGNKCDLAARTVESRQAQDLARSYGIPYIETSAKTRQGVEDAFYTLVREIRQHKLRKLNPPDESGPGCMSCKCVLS

Chain of GDP-bound NRAS wild-type protein (P01111 whole entry): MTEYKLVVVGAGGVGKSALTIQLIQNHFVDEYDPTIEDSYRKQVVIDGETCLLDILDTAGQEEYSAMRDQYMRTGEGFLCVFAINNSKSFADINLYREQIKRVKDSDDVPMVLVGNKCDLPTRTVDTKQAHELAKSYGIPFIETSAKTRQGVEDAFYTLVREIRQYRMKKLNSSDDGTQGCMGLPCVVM

Structure (SMILES)	NRAS/KRAS (ratio of KD value for NRAS to KD value for KRAS) [1]	HRAS/KRAS (ratio of KD value for HRAS to KD value for KRAS) [2]
CC[C@H](C)[C@@H]1NC(=O)[C@H](CC)N(C)C(=O)C[C@@H](C(=O)N(C)CC)N(C)C(=O)[C@H](C2CCCC2)N(C)C(=O)C2(CC(C)(C)C2)NC(=O)[C@@H]2C[C@@H](C)CN2C(=O)[C@H](CCc2ccc(C(F)(F)F)c(Cl)c2)NC(=O)CN(C)C(=O)[C@H](Cc2ccc(C)cc2)N2CC/C=C\C[C@@H](C2=O)N(C)C(=O)CN(C)C1=O [PP1876]	A (a compound having 10 or more and less than 20 is denoted as A)	A (a compound having 10 or more and less than 20 is denoted as A)
CCO[C@@H]1C[C@H]2C(=O)NC3(CCC3)C(=O)N(C)[C@@H](C3CCCC3)C(=O)N(C)[C@H](C(=O)N(C)CC)CC(=O)N(C)[C@@H](CC3CC3)C(=O)N[C@@H]([C@@H](C)CC)C(=O)N(C)CC(=O)N(C)[C@H]3C/C=C\CCN(C3=O)[C@@H](Cc3ccc(C)cc3)C(=O)N(C)CC(=O)N[C@@H](CCc3ccc(C(F)(F)F)c(OC)c3)C(=O)N2C1 [PP1879]	A (a compound having 10 or more and less than 20 is denoted as A)	B (a compound having 3 or more and less than 10 is denoted as B)
CCO[C@@H]1C[C@H]2C(=O)NC3(CC(C)(C)C3)C(=O)N(C)[C@@H](C3CCCC3)C(=O)N(C)[C@H](C(=O)N(C)CC)CC(=O)N(C)[C@@H](CC)C(=O)N[C@@H]([C@@H](C)CC)C(=O)N(C)CC(=O)N(C)[C@H]3C/C=C\CCN(C3=O)[C@@H](Cc3ccc(C)cc3)C(=O)N(C)CC(=O)N[C@@H](CCc3ccc(C(F)(F)F)c(Cl)c3)C(=O)N2C1 [PP1880]	A (a compound having 10 or more and less than 20 is denoted as A)	B (a compound having 3 or more and less than 10 is denoted as B)
CCO[C@@H]1C[C@H]2C(=O)NC3(CC(C)(C)C3)C(=O)N(C)[C@@H](C3CCCC3)C(=O)N(C)[C@H](C(=O)N(CC)CC)CC(=O)N(C)[C@@H](CC)C(=O)N[C@@H]([C@@H](C)CC)C(=O)N(C)CC(=O)N(C)[C@H]3C/C=C\CCN(C3=O)[C@@H](Cc3ccc(C)cc3)C(=O)N(C)CC(=O)N[C@@H](CCc3ccc(C(F)(F)F)c(OC)c3)C(=O)N2C1 [PP1881]	A (a compound having 10 or more and less than 20 is denoted as A)	A (a compound having 10 or more and less than 20 is denoted as A)
CCO[C@@H]1C[C@H]2C(=O)NC3(CC(C)(C)C3)C(=O)N(C)[C@@H](C3CCCC3)C(=O)N(C)[C@H](C(=O)N(CC)CC)CC(=O)N(C)[C@@H](CC)C(=O)N[C@@H]([C@@H](C)CC)C(=O)N(C)CC(=O)N(C)[C@H]3C/C=C\CCN(C3=O)[C@@H](Cc3ccc(C)cc3)C(=O)N(C)CC(=O)N[C@@H](CCc3ccc(C(F)(F)F)c(Cl)c3)C(=O)N2C1 [PP1883]	A (a compound having 10 or more and less than 20 is denoted as A)	A (a compound having 10 or more and less than 20 is denoted as A)
CC[C@H](C)[C@@H]1NC(=O)[C@H](CC(C)C)N(C)C(=O)C[C@@H](C(=O)N(CC)CC)N(C)C(=O)[C@H](C2CCCC2)N(C)C(=O)C2(CCC2)NC(=O)[C@@H]2C[C@H](C)CN2C(=O)[C@H](CCc2ccc(C(F)(F)F)c(OC)c2)NC(=O)CN(C)C(=O)[C@H](Cc2ccc(C)cc2)N2CC/C=C\C[C@@H](C2=O)N(C)C(=O)CN(C)C1=O [PP1885]	AA (a compound having 20 or more is denoted as AA)	A (a compound having 10 or more and less than 20 is denoted as A)
CCO[C@@H]1C[C@H]2C(=O)NC3(CC(C)(C)C3)C(=O)N(C)[C@@H](C3CCCC3)C(=O)N(C)[C@H](C(=O)N(C)CC)CC(=O)N(C)[C@@H](CC)C(=O)N[C@@H]([C@@H](C)CC)C(=O)N(C)CC(=O)N(C)[C@H]3C/C=C\CCN(C3=O)[C@@H](Cc3ccc(C)cc3)C(=O)N(C)CC(=O)N[C@@H](CCc3cc(F)c(C(F)(F)F)c(F)c3)C(=O)N2C1 [PP1886]	A (a compound having 10 or more and less than 20 is denoted as A)	B (a compound having 3 or more and less than 10 is denoted as B)
